Results taken from the supplement of paper PMC10307832.

Columns and labels:
Assay in all cases: relative viability (nuclei count vs DMSO), 5 days (fraction); higher = more cells survive
BAY61-3606 + Navitoclax = compound: COC1=C(C=C(C=C1)C2=CC3=NC=CN3C(=N2)NC4=C(C=CC=N4)C(=O)N)OC [BAY61-3606] + CC1(C)CCC(c2ccc(Cl)cc2)=C(CN2CCN(c3ccc(C(=O)NS(=O)(=O)c4ccc(N[C@H](CCN5CCOCC5)CSc5ccccc5)c(S(=O)(=O)C(F)(F)F)c4)cc3)CC2)C1 [Navitoclax] (partner 0.5 µM)
Method in brief: (§1)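 Five library-drug doses in √10 steps were combined with a fixed anchor-drug dose, or a single drug was given alone, by pin tool to lung cancer cell lines in 1536-well plates the day after seeding. Nuclei were stained and counted after 5 days. Relative viability is the nuclei count in treated wells over that in vehicle wells, taken as the median of duplicate plates.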

Doxorubicin + Phenformin = compound: COc1cccc2c1C(=O)c1c(O)c3c(c(O)c1C2=O)C[C@@](O)(C(=O)CO)C[C@@H]3O[C@H]1C[C@H](N)[C@H](O)[C@H](C)O1 [Doxorubicin] + N=C(N)NC(=N)NCCc1ccccc1 [Phenformin] (partner 250 µM)
Method in brief: as §1

BAY61-3606 = compound: COC1=C(C=C(C=C1)C2=CC3=NC=CN3C(=N2)NC4=C(C=CC=N4)C(=O)N)OC [BAY61-3606]
Method in brief: (§2)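 Following overnight incubation at 37 °C, lung cancer cell lines in 1536-well plates were pinned with five library-drug doses (not always all listed) in √10 steps on vehicle-anchored plates. The cells then spent 5 days without medium change before a combined fix, permeabilisation and Hoechst stain, 4× imaging and MetaXpress nuclear counts. Viability is the treated-to-vehicle ratio of nuclei, taken as the median across plates. Only plates with control CV below 25% and at least one doubling passed.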

Doxorubicin = compound: COc1cccc2c1C(=O)c1c(O)c3c(c(O)c1C2=O)C[C@@](O)(C(=O)CO)C[C@@H]3O[C@H]1C[C@H](N)[C@H](O)[C@H](C)O1 [Doxorubicin]
Method in brief: as §2

Cell Line | relative viability (BAY61-3606 + Navitoclax; first compound 0.02 µM) | relative viability (BAY61-3606 + Navitoclax; first compound 0.06325 µM) | relative viability (BAY61-3606 + Navitoclax; first compound 0.2 µM) | relative viability (BAY61-3606 + Navitoclax; first compound 0.6325 µM) | relative viability (BAY61-3606 + Navitoclax; first compound 2 µM) | relative viability (Doxorubicin + Phenformin; first compound 0.001 µM) | relative viability (Doxorubicin + Phenformin; first compound 0.003162 µM) | relative viability (Doxorubicin + Phenformin; first compound 0.01 µM) | relative viability (Doxorubicin + Phenformin; first compound 0.03162 µM) | relative viability (Doxorubicin + Phenformin; first compound 0.1 µM) | relative viability (BAY61-3606; 0.02 µM) | relative viability (BAY61-3606; 0.06325 µM) | relative viability (BAY61-3606; 0.2 µM) | relative viability (BAY61-3606; 0.6325 µM) | relative viability (BAY61-3606; 2 µM) | relative viability (Doxorubicin; 0.001 µM) | relative viability (Doxorubicin; 0.003162 µM) | relative viability (Doxorubicin; 0.01 µM) | relative viability (Doxorubicin; 0.03162 µM) | relative viability (Doxorubicin; 0.1 µM)
NCI-H2023 | 1.03 | 1.05 | 1.07 | 1.02 | 0.873 | 0.431 | 0.398 | 0.321 | 0.126 | 0.0808 | 1.14 | 1.05 | 1 | 1.16 | 0.697 | 0.873 | 0.903 | 0.706 | 0.209 | 0.0985
NCI-H322M | 1.38 | 1.25 | 1.22 | 1.3 | 1.33 | 0.815 | 0.731 | 0.755 | 0.429 | 0.385 | 1.04 | 0.919 | 1 | 0.921 | 0.843 | 1 | 0.887 | 0.976 | 0.904 | 0.568
NCI-H1792 | 0.663 | 0.637 | 0.646 | 0.596 | 0.696 |  | 0.299 | 0.262 | 0.337 | 0.19 | 0.982 | 0.853 | 1 | 0.885 | 1.03 |  | 0.885 | 0.964 | 0.903 | 0.747
HCC-827 | 1 | 0.998 | 1.06 | 1.08 | 1.02 | 0.429 | 0.409 | 0.401 | 0.401 | 0.408 | 1.02 | 1.01 | 1.06 | 1.1 | 0.994 | 1.01 | 1.01 | 1.04 | 1.03 | 1
LU99A | 0.845 | 0.762 | 0.984 | 0.828 | 0.396 | 0.698 | 1.06 | 0.767 | 0.721 | 0.669 | 1.04 | 0.953 | 1.01 | 0.967 | 0.702 | 0.938 | 1.02 | 0.893 | 0.838 | 0.813
LC-2-ad | 0.471 | 0.521 | 0.466 | 0.468 | 0.26 | 0.498 | 0.516 | 0.562 | 0.289 | 0.304 | 1.07 | 1.01 | 0.932 | 1.04 | 0.841 | 0.883 | 0.909 | 0.948 | 0.943 | 0.793
NCI-H460 | 1.27 | 1.28 | 1.06 | 1.1 | 0.756 | 0.435 | 0.449 | 0.179 | 0.0505 | 0.0155 | 1.04 | 1.03 | 0.959 | 0.998 | 0.891 | 0.957 | 0.96 | 0.859 | 0.468 | 0.141
HOP-62 | 0.981 | 1.08 | 0.981 | 1.08 | 0.676 | 0.654 | 0.625 | 0.631 | 0.542 | 0.484 | 0.969 | 1 | 0.954 | 0.956 | 0.964 | 0.937 | 1.04 | 1 | 1.04 | 1.02
NCI-H441 | 0.84 | 0.515 | 0.66 | 0.82 | 0.262 |  | 0.682 | 0.438 | 0.218 | 0.245 | 1.12 | 1.15 | 1.01 | 1.15 | 0.682 | 0.687 | 0.957 | 0.677 | 0.359 | 0.326
NCI-H1993 | 0.831 | 0.785 | 0.707 | 0.819 | 0.739 | 0.508 | 0.494 | 0.455 | 0.491 | 0.453 | 0.958 | 0.896 | 0.818 | 0.97 | 0.806 | 0.967 | 0.927 | 1.01 | 0.819 | 0.749
NCI-H1734 | 0.904 | 0.727 | 0.786 | 0.829 | 0.529 | 0.385 | 0.413 | 0.356 | 0.262 | 0.261 | 1.04 | 0.979 | 0.746 | 0.935 | 0.602 | 0.923 | 1.11 | 0.876 | 0.669 | 0.608
NCI-H1666 | 1.17 |  | 1.06 | 0.965 | 1.02 | 0.604 | 0.504 | 0.481 | 0.368 | 0.337 | 1.14 | 0.996 | 0.958 | 1.04 | 1.01 | 0.902 | 0.996 | 0.814 | 0.548 | 0.525
NCI-H647 | 1.21 | 1.05 | 1.04 | 1.26 | 0.663 | 0.539 | 0.494 | 0.432 | 0.231 | 0.103 | 1.15 | 0.897 | 0.946 | 0.979 | 0.616 | 0.953 | 1.07 | 0.987 | 0.495 | 0.201
LCLC-97TM1 | 0.393 |  | 0.386 | 0.417 | 0.326 | 0.449 | 0.481 | 0.402 | 0.467 | 0.392 | 1.06 | 1.07 | 1 | 0.892 | 1.01 | 0.909 | 1.11 | 0.909 | 0.822 | 0.749
LOU-NH91 | 0.73 | 0.57 | 0.731 | 0.812 | 0.5 | 0.505 | 0.695 | 0.783 | 0.698 | 0.591 | 0.991 | 0.816 | 0.965 | 0.996 | 0.862 | 0.692 | 0.948 | 1.05 | 0.914 | 0.761
RERF-LC-KJ | 0.759 | 0.9 | 0.975 | 0.83 | 0.876 | 0.397 | 0.443 | 0.372 | 0.325 | 0.271 | 1.04 | 1.03 | 0.93 | 1.06 | 0.791 | 0.986 | 1.04 | 0.986 | 0.713 | 0.904
NCI-H1437 | 1.1 | 1.16 | 1.06 | 1.12 | 1.06 | 0.317 | 0.269 | 0.242 | 0.256 | 0.158 | 1.03 | 1.03 | 0.978 | 1 | 0.941 | 0.991 | 1.01 | 0.894 | 0.718 | 0.409
NCI-H2087 | 0.896 | 1.06 | 0.981 | 0.922 | 0.82 |  | 0.45 | 0.405 | 0.273 | 0.247 | 0.996 | 1.15 | 1.18 | 1.11 | 0.961 | 0.819 | 1.15 | 1.01 | 0.78 | 0.636
